Values quoted from earlier work, collected in patent US20240423930A1, “PHARMACEUTICAL COMPOSITION AND METHOD FOR TREATING CARDIOVASCULAR DISEASES” (priority 2020, published 2024).

Tested on: furin
Details: ectopic expression of the inhibitor; in vitro digestion assay

alpha (1)-antitrypsin Portland [alpha(1)-AT-PDX]
blocked TGF-beta1 processing mediated by endogenous enzymes: 80%
